Tests used:
duck salad = test: Test B flood test duck salad; assay type: in vivo, Heteranthera limosa
In short: (§1)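 Plants were grown to the 2-leaf stage before treatment with test chemical, then held in a greenhouse for twelve to sixteen days. Injury was visually rated against untreated controls on a 0–10 scale, where 0 is no effect and 10 is complete control.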

cocklebur = test: Test B pre/postemergence cocklebur; assay type: in vivo, Xanthium strumarium
In short: (§2)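 Test chemicals in a non-phytotoxic solvent mixture with surfactant were sprayed preemergence onto planted seeds and postemergence onto plants 2 to 18 cm tall (1- to 4-leaf stage). After twelve to sixteen days in a greenhouse, injury was visually rated against untreated controls from 0 (no effect) to 10 (complete control).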

crabgrass = test: Test B pre/postemergence crabgrass; assay type: in vivo, Digitaria sanguinalis
In short: as §2

rape = test: Test B pre/postemergence rape; assay type: in vivo, Brassica napus
In short: as §2

wild oat = test: Test B pre/postemergence wild oat; assay type: in vivo, Avena fatua
In short: as §2

corn = test: Test B pre/postemergence corn; assay type: in vivo, Zea mays
In short: as §2

velvetleaf = test: Test B pre/postemergence velvetleaf; assay type: in vivo, Abutilon theophrasti
In short: as §2

bedstraw = test: Test B pre/postemergence bedstraw; assay type: in vivo, Galium aparine; conditions: Postemergence
In short: as §2

morningglory = test: Test B pre/postemergence morningglory; assay type: in vivo, Ipomoea hederacea
In short: as §2

surinam grass = test: Test B pre/postemergence surinam grass; assay type: in vivo, Brachiaria decumbens
In short: as §2

wheat = test: Test B pre/postemergence wheat; assay type: in vivo, Triticum aestivum
In short: as §2

sugar beet = test: Test B pre/postemergence sugar beet; assay type: in vivo, Beta vulgaris
In short: as §2

purple nutsedge = test: Test B pre/postemergence purple nutsedge; assay type: in vivo, Cyperus rotundus
In short: as §2

soybean = test: Test B pre/postemergence soybean; assay type: in vivo, Glycine max
In short: as §2

giant foxtail = test: Test B pre/postemergence giant foxtail; assay type: in vivo, Setaria faberii
In short: as §2

pigweed = test: Test B pre/postemergence pigweed; assay type: in vivo, Amaranthus retroflexus
In short: as §2

bamyardgrass = test: Test B flood test barnyardgrass; assay type: in vivo, Echinochloa crus-galli
In short: as §1

rice = test: Test B flood test rice; assay type: in vivo, Oryza sativa
In short: as §1

blackgrass = test: Test B pre/postemergence blackgrass; assay type: in vivo, Alopecurus myosuroides
In short: as §2

smallflower flatsedge = test: Test B flood test smallflower flatsedge; assay type: in vivo, Cyperus difformis
In short: as §1

[1] = Rate 62 g/ha, flood test species, Pre-emergence, visual evaluation after twelve to sixteen days
[2] = Rate 125 g/ha, under heading Pre-emergence, flood test species, visual evaluation after twelve to sixteen days
[3] = Rate 250 g/ha, Pre-emergence (flood test species), scale 0 to 10, 0 is no effect, 10 is complete control
[4] = Rate 500 g/ha, Pre-emergence section of Table B, 0 to 10 scale (0 no effect, 10 complete control)
[5] = Postemergence, Rate 62 g/ha, scale 0 to 10, 0 is no effect, 10 is complete control
[6] = Postemergence, Rate 125 g/ha, scale of 0 to 10 where 0 is no effect and 10 is complete control
[7] = Postemergence, Rate 250 g/ha, scale of 0 to 10, 0 is no effect, 10 is complete control
[8] = Postemergence, Rate 500 g/ha, scale of 0 to 10 where 0 is no effect and 10 is complete control
[9] = Preemergence, Rate 62 g/ha, scale 0 to 10 (0 no effect, 10 complete control)
[10] = Preemergence, Rate 125 g/ha, scale of 0 to 10 where 0 is no effect and 10 is complete control
[11] = Preemergence, Rate 500 g/ha, scale of 0 to 10 where 0 is no effect and 10 is complete control

## CCC(C)n1c(=O)on(C(=O)N(c2ccc(F)cc2)C(C)C)c1=O (centres unmarked) [Compound 613]
Duck salad; [1]
  Plant response rating, Ducksalad (0 to 10 scale, 0 is no effect, 10 is complete control): 0
Duck salad; [2]
  Ducksalad plant response rating (0 to 10 scale, 0 is no effect, 10 is complete control): 0
Duck salad; [3]
  Ducksalad plant response rating: 0
Duck salad; [4]
  Ducksalad plant response rating: 0
cocklebur; [5]
  Plant response rating, Cocklebur: 0
cocklebur; [6]
  Plant response rating, Cocklebur: 2
cocklebur; [7]
  Cocklebur plant response rating: 2
cocklebur; [8]
  Plant response rating, Cocklebur: 2
cocklebur; [9]
  Cocklebur plant response rating: 0
cocklebur; [10]
  Cocklebur plant response rating: 0
cocklebur; Preemergence, Rate 250 g/ha
  Cocklebur plant response rating (0 to 10 scale): 2
cocklebur; [11]
  Plant response rating, Cocklebur: 8
crabgrass; [5]
  Plant response rating, Crabgrass: 8
crabgrass; [6]
  Plant response rating, Crabgrass: 9
crabgrass; [7]
  Crabgrass plant response rating: 9
crabgrass; [8]
  Plant response rating, Crabgrass: 9
crabgrass; [9]
  Crabgrass plant response rating: 9
crabgrass; [10]
  Crabgrass plant response rating: 10
crabgrass; [11]
  Plant response rating, Crabgrass: 10
rape; [5]
  Plant response rating, Rape: 0
rape; [6]
  Plant response rating, Rape: 0
rape; [7]
  Rape plant response rating: 3
rape; [8]
  Plant response rating, Rape: 7
rape; [9]
  Rape plant response rating: 7
rape; [10]
  Rape plant response rating: 9
rape; [11]
  Plant response rating, Rape: 10
Wild oat; [5]
  Plant response rating, Wild oats: 1
Wild oat; [6]
  Plant response rating, Wild oats: 7
Wild oat; [7]
  Wild oats plant response rating: 9
Wild oat; [8]
  Plant response rating, Wild oats: 9
Wild oat; [9]
  Wild oats plant response rating: 7
Wild oat; [10]
  Wild oats plant response rating: 9
Wild oat; [11]
  Plant response rating, Wild oats: 10
corn; [5]
  Plant response rating, Corn: 0
corn; [6]
  Plant response rating, Corn: 0
corn; [7]
  Corn plant response rating: 0
corn; [8]
  Plant response rating, Corn: 0
corn; [9]
  Corn plant response rating: 2
corn; [10]
  Corn plant response rating: 3
corn; Preemergence, Rate 250 g/ha
  Corn plant response rating (0 to 10 scale): 9
corn; [11]
  Plant response rating, Corn: 9
velvetleaf; [5]
  Plant response rating, Velvetleaf: 0
velvetleaf; [6]
  Plant response rating, Velvetleaf: 4
velvetleaf; [7]
  Velvetleaf plant response rating: 5
velvetleaf; [8]
  Plant response rating, Velvetleaf: 8
velvetleaf; [9]
  Velvetleaf plant response rating: 7
velvetleaf; [10]
  Velvetleaf plant response rating: 7
velvetleaf; [11]
  Plant response rating, Velvetleaf: 8
bedstraw; Rate 62 g/ha, scale 0 to 10, 0 is no effect, 10 is complete control
  Plant response rating, Bedstraw: 8
bedstraw; Rate 250 g/ha, scale of 0 to 10, 0 is no effect, 10 is complete control
  Bedstraw plant response rating: 8
bedstraw; Rate 500 g/ha, scale of 0 to 10 where 0 is no effect and 10 is complete control
  Plant response rating, Bedstraw: 9
morningglory; [5]
  Plant response rating, Morningglory: 7
morningglory; [6]
  Plant response rating, Morningglory: 7
morningglory; [7]
  Morningglory plant response rating: 8
morningglory; [8]
  Plant response rating, Morningglory: 8
morningglory; [9]
  Morningglory plant response rating: 0
morningglory; [10]
  Morningglory plant response rating: 0
morningglory; [11]
  Plant response rating, Morningglory: 10
Surinam grass; [5]
  Plant response rating, B. signalgrass: 1
Surinam grass; [6]
  Plant response rating, B. signalgrass: 3
Surinam grass; [7]
  B. signalgrass plant response rating: 6
Surinam grass; [8]
  Plant response rating, B. signalgrass: 8
Surinam grass; [9]
  B. signalgrass plant response rating: 7
Surinam grass; [10]
  B. signalgrass plant response rating: 8
Surinam grass; Preemergence, Rate 250 g/ha
  B. signalgrass plant response rating (0 to 10 scale, 0 is no effect, 10 is complete control): 9
Surinam grass; [11]
  B. signalgrass plant response rating: 9
wheat; [5]
  Plant response rating, Wheat: 0
wheat; [6]
  Plant response rating, Wheat: 0
wheat; [7]
  Wheat plant response rating: 2
wheat; [8]
  Plant response rating, Wheat: 6
wheat; [9]
  Wheat plant response rating: 0
wheat; [10]
  Wheat plant response rating: 3
wheat; [11]
  Plant response rating, Wheat: 6
Sugar beet; [5]
  Plant response rating, Sugarbeets: 0
Sugar beet; [6]
  Plant response rating, Sugarbeets: 0
Sugar beet; [7]
  Sugarbeets plant response rating: 0
Sugar beet; [8]
  Plant response rating, Sugarbeets: 0
Sugar beet; [9]
  Sugarbeets plant response rating: 3
Sugar beet; [10]
  Sugarbeets plant response rating: 5
Sugar beet; [11]
  Plant response rating, Sugarbeets: 10
Purple nutsedge; [5]
  Plant response rating, Nutsedge: 0
Purple nutsedge; [6]
  Plant response rating, Nutsedge: 2
Purple nutsedge; [7]
  Nutsedge plant response rating: 2
Purple nutsedge; [8]
  Plant response rating, Nutsedge: 4
Purple nutsedge; [9]
  Nutsedge plant response rating: 0
Purple nutsedge; [10]
  Nutsedge plant response rating: 0
Purple nutsedge; [11]
  Plant response rating, Nutsedge: 2
soybean; [5]
  Plant response rating, Soybean: 4
soybean; [6]
  Plant response rating, Soybean: 5
soybean; [7]
  Soybean plant response rating: 6
soybean; [8]
  Plant response rating, Soybean: 8
soybean; [9]
  Soybean plant response rating: 0
soybean; [10]
  Soybean plant response rating: 0
soybean; [11]
  Plant response rating, Soybean: 2
Giant foxtail; [5]
  Plant response rating, Giant foxtail: 5
Giant foxtail; [6]
  Plant response rating, Giant foxtail: 9
Giant foxtail; [7]
  Giant foxtail plant response rating: 9
Giant foxtail; [8]
  Plant response rating, Giant foxtail: 9
Giant foxtail; [9]
  Giant foxtail plant response rating: 10
Giant foxtail; [10]
  Giant foxtail plant response rating: 10
Giant foxtail; [11]
  Plant response rating, Giant foxtail: 10
pigweed; [5]
  Plant response rating, Redroot pigweed: 1
pigweed; [6]
  Plant response rating, Redroot pigweed: 2
pigweed; [7]
  Redroot pigweed plant response rating: 7
pigweed; [8]
  Plant response rating, Redroot pigweed: 8
pigweed; [9]
  Redroot pigweed plant response rating: 10
pigweed; [10]
  Redroot pigweed plant response rating: 10
pigweed; [11]
  Plant response rating, Redroot pigweed: 10
bamyardgrass; [1]
  Plant response rating, Barnyardgrass (0 to 10 scale, 0 is no effect, 10 is complete control): 0
bamyardgrass; [2]
  Barnyardgrass plant response rating (0 to 10 scale, 0 is no effect, 10 is complete control): 0
bamyardgrass; [3]
  Barnyardgrass plant response rating: 0
bamyardgrass; [4]
  Barnyardgrass plant response rating: 0
rice; [1]
  Plant response rating, Rice (0 to 10 scale, 0 is no effect, 10 is complete control): 0
rice; [2]
  Rice plant response rating (0 to 10 scale, 0 is no effect, 10 is complete control): 0
rice; [3]
  Rice plant response rating: 0
rice; [4]
  Rice plant response rating: 0
blackgrass; [5]
  Plant response rating, Blackgrass: 8
blackgrass; [6]
  Plant response rating, Blackgrass: 9
blackgrass; [7]
  Blackgrass plant response rating: 9
blackgrass; [8]
  Plant response rating, Blackgrass: 9
blackgrass; [9]
  Blackgrass plant response rating: 8
blackgrass; [10]
  Blackgrass plant response rating: 8
blackgrass; Preemergence, Rate 250 g/ha
  Blackgrass plant response rating (0 to 10 scale): 10
blackgrass; [11]
  Blackgrass plant response rating: 10
Smallflower flatsedge; [1]
  Plant response rating, S. Flatsedge (0 to 10 scale, 0 is no effect, 10 is complete control): 0
Smallflower flatsedge; [2]
  S. Flatsedge plant response rating (0 to 10 scale, 0 is no effect, 10 is complete control): 0
Smallflower flatsedge; [3]
  S. Flatsedge plant response rating: 0
Smallflower flatsedge; [4]
  S. Flatsedge plant response rating: 0

Reference: US6737383B1, “Herbicidal oxadiazolidines” (priority 1999, dated 2004)
